# Results as given in ChEMBL document CHEMBL1201862, “PubChem BioAssay data set” (2004).
# Active and inactive are the calls of the source.
# Key:
# [1] = biological target: Heat shock protein HSP 90-alpha (Homo sapiens, UniProt P07900); type: functional, organism-based
# cells [2] = type: functional, cell-based
# cells [3] = type: functional, cell-based; remark: listed apart in the source
# HEK293 [4] = test: cells; conditions: Homo sapiens
# HEK293 [5] = test: cells; conditions: Homo sapiens; remark: listed apart in the source
# [6] = biological target: T1, Mannose-6-phosphate isomerase (Homo sapiens, UniProt P34949); test: MPI inhibition at elevated mannose 6-phosphate – biochemical, fluorescence intensity, high mannose 6-phosphate, primary screen (AID 1220)
# T1 sequence (P34949 whole entry): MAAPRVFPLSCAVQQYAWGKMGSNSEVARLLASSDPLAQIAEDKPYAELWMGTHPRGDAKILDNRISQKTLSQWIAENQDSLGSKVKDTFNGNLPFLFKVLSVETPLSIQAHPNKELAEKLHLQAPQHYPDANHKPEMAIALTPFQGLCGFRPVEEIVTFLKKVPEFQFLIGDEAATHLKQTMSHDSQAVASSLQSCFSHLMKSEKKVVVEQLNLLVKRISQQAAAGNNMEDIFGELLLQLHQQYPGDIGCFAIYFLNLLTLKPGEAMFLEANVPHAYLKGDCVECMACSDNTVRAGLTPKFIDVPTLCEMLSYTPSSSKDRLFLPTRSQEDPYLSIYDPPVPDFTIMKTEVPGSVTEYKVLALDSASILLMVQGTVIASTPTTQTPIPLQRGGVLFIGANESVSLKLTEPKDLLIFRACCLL
# [7] = THP-1 cell cytotoxicity, dose response, cytotoxicity control for non-replicating M. tuberculosis project (AID 489025); type: functional
# [8] = NIH-3T3 fibroblast cytotoxicity, dose response, cytotoxicity control, cell-based, fluorescence, Alamar Blue, secondary assay (AID 2327); type: functional;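 also: NIH-3T3 mouse fibroblasts cultured with fluconazole at 8 µg/mL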
# [9] = fluconazole-exposed Candida albicans growth modulators – fluorescence, retest, confirmation (AID 2467); type: functional, cell-based
# [10] = biological target: DNA dC->dU-editing enzyme APOBEC-3A (Homo sapiens, UniProt P31941); test: A3A deaminase inhibition for selectivity – biochemical, dose response (AID 504722); type: functional
# DNA dC->dU-editing enzyme APOBEC-3A, sequence (P31941 whole entry): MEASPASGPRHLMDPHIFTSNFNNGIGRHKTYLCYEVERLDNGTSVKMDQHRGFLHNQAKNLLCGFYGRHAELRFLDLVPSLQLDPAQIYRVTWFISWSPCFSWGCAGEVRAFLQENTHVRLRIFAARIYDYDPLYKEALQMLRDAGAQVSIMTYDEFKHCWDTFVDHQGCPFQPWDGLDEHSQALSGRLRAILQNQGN
# [11] = biological target: DNA dC->dU-editing enzyme APOBEC-3G (Homo sapiens, UniProt Q9HC16); test: Dose Response confirmation of small molecule APOBEC3G DNA Deaminase Inhibitors via a fluorescence-based single-stranded DNA deaminase assay. [Related pubchem assays (depositor defined):AID493012, AID493028]; type: functional
# DNA dC->dU-editing enzyme APOBEC-3G, sequence (Q9HC16 whole entry): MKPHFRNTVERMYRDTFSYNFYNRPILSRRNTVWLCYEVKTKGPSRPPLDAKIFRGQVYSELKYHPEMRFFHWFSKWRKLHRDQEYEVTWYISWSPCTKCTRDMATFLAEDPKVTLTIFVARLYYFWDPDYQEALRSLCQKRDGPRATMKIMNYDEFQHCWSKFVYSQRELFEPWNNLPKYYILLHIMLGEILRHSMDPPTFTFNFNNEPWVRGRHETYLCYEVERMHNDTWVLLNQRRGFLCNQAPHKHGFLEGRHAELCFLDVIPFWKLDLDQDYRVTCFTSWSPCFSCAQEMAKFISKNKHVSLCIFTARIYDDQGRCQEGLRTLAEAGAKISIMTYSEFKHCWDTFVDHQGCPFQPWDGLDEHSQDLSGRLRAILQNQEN
# Caspase-3 = biological target: T2, Caspase-3 (Homo sapiens, UniProt P42574); type: functional;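 also: Dose-response selectivity test against caspase-3 for candidate inhibitors of sentrin-specific proteases (SENPs)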
# T2 sequence (P42574 whole entry): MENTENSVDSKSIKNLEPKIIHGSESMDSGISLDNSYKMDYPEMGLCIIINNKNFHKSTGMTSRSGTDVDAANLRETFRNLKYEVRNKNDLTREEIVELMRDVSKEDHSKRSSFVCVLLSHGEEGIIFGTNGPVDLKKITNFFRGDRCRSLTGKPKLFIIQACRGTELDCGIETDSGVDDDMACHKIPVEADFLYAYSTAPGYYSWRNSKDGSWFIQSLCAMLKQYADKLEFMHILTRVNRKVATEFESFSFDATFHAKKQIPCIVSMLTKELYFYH
# [12] = biological target: T3, Sentrin-specific protease 6 (Homo sapiens, UniProt Q9GZR1); type: functional;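 also: Luminescence-based dose-response confirmatory assay of SENP6 inhibition, following up an ultra-high-throughput screen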
# T3 sequence (Q9GZR1 whole entry): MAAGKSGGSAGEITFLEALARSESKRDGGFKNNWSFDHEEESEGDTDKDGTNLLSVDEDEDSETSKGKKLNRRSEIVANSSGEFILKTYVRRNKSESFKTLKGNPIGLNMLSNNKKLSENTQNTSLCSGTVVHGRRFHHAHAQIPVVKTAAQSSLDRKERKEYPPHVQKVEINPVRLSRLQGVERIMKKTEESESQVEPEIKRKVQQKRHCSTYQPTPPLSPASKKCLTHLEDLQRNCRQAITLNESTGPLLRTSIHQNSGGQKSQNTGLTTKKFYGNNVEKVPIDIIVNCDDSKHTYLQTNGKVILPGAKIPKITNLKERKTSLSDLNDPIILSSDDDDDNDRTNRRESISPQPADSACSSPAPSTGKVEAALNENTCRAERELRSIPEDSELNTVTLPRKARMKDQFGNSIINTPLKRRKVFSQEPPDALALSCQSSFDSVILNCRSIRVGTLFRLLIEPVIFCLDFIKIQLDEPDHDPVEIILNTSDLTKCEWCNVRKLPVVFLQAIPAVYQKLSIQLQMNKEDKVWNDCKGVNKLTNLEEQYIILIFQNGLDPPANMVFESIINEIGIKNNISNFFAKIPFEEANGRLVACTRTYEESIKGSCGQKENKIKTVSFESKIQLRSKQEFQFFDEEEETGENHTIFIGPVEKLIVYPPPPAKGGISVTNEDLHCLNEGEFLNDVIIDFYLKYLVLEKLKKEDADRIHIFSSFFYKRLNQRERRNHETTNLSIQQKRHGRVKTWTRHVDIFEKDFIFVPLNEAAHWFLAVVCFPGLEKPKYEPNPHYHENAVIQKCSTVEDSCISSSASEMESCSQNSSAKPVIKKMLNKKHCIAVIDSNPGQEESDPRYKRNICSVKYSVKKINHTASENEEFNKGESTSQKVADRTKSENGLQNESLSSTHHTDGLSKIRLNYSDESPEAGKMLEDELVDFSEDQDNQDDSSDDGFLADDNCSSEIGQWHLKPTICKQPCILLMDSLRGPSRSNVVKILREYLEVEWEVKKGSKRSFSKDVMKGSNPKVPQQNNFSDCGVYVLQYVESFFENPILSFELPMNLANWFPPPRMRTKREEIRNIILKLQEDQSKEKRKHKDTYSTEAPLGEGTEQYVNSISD
# [13] = biological target: T4, Sentrin-specific protease 8 (Homo sapiens, UniProt Q96LD8); type: functional;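 also: luminescence read-out of SENP8 inhibition, dose-response confirmation following an ultra-high-throughput screen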
# T4 sequence (Q96LD8 whole entry): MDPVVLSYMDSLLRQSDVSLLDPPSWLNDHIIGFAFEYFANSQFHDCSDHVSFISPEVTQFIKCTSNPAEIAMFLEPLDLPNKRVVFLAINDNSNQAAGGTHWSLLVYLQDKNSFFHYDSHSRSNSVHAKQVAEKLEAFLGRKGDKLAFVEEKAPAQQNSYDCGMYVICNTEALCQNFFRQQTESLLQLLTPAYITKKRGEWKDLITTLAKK
# [14] = biological target: T5, Calpain-2 catalytic subunit (Sus scrofa, UniProt P43367); test: m-calpain protease blockers, concentration series – biochemical, fluorogenic peptide substrate, dose response (AID 1420); type: functional
# T5 sequence (P43367 whole entry): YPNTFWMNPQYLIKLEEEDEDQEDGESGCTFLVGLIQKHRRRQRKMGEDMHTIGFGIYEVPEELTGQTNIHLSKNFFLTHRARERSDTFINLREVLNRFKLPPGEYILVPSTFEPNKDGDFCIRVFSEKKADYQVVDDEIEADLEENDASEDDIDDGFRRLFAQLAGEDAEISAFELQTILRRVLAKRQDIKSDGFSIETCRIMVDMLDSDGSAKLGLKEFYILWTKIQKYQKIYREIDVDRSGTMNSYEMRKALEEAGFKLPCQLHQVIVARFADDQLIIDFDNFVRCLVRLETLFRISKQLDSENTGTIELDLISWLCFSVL
# [15] = viability of uninfected HEp-2 cells – cell-based, HTS, cytotoxicity control for RSV inhibitor project, dose response (AID 2410); type: functional; conditions: human respiratory syncytial virus
# [16] = Trypanosoma cruzi growth suppression in host cells – NIH3T3 host cells, beta-gal luminescence, confirmation (AID 2044); type: functional, cell-based;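 also: intracellular parasites grown in NIH/3T3 mouse fibroblasts as host cells; luminescent beta-galactosidase reporter signal from transgenic T. cruzi replicating inside host cells; inhibitors lower the luminescence signal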
# [17] = viability of PTEN-deleted HCT116 cells – cell-based, HCT116 PTEN knockout, dose response (AID 1047); type: functional;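 also: HCT116 colon tumor cells with PTEN knocked out; cells exposed to compound for 60 hours before readout; potency for loss of cell viability measured by luminescence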
# [18] = NIH3T3 cell viability loss – ATP luminescence, mouse fibroblasts, counter-screen, dose response (AID 2010); type: functional, cell-based;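 also: cells exposed to compound for about 90 hours before reading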
# [19] = viability of HCT116 lacking mutant beta-catenin – cell-based, human colon tumor, dose response (AID 1045); type: functional;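 also: HCT116 colon tumor cells with beta catenin knocked out; cells exposed to compound for 60 hours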
# [20] = HPDE-C7 pancreatic duct cell viability loss – fluorescence, HTS (AID 430); type: functional, cell-based; conditions: Homo sapiens
# [21] = viability loss of HPDE-C7K cells – cell-based, fluorescence, HTS, primary screen (AID 431); type: functional; conditions: Homo sapiens
# [22] = biological target: T6, Polyadenylate-binding protein 1 (Homo sapiens, UniProt P11940); test: MLLE binding blockers, Cy5 peptide tracer – biochemical, fluorescence polarization, Cy5-PAM2 peptide, secondary, miRNA deadenylation inhibitor project, dose response (AID 602260); type: functional; conditions: read-out: IC50_Mean
# T6 sequence (P11940 whole entry, the tested form may be a part): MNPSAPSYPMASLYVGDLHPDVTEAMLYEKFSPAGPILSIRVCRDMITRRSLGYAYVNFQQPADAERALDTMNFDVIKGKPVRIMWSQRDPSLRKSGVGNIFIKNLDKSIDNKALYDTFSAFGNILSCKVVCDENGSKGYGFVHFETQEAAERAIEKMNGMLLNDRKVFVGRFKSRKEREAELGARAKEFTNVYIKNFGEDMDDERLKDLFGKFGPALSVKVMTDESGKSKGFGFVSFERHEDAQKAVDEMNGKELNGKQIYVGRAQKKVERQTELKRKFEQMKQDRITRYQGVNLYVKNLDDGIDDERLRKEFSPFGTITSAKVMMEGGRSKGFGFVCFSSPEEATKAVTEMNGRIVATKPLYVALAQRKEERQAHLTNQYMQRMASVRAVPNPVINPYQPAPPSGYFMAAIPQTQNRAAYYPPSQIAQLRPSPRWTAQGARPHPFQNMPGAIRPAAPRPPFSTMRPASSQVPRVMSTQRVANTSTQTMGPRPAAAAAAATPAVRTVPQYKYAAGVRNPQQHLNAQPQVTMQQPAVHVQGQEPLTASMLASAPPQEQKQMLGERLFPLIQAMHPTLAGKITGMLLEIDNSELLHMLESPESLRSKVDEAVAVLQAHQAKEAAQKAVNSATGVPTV
# [23] = biological target: T6, Polyadenylate-binding protein 1; test: MLLE domain peptide-binding blockers, IC50 – biochemical, fluorescence polarization, FITC-PAM2 peptide, dose response (AID 602259); type: functional; conditions: read-out: IC50_Mean
structure (smiles),measurement,setting,value
CCOC(=O)C1=C(N)N2C(=O)C(C)SC2=C(C(=O)OC)C1c1ccccc1OC (stereo unspecified),AC50,[1],0.982 µM (active)
CCN(CC(=O)Nc1ccc2c(c1)OCCO2)CC(=O)Nc1ccc2c(c1)OCO2,EC50,cells [2],> 350 µM (not active)
same,EC50,cells [3],> 350 µM (not active)
O=C(O)c1ccccc1NC(c1ccccc1)c1ccc2cccnc2c1O (stereo unspecified),AC50,[1],7.23 µM (active)
C=CCn1c(S)nnc1-c1csc(-c2ccc(OC)c(OC)c2)n1,EC50,HEK293 [4],> 59.7 µM (inactive)
same,EC50,HEK293 [5],> 0.736 µM (active)
CCN1CCN(C(=O)C(C)Nc2cc(Cl)c(OC)cc2OC)CC1 (stereo unspecified),IC50,[6],> 50 µM (not active)
Cc1ccc2c(c1)C(=O)C(=O)N2CCCOc1ccccc1,CC50,[7],> 40 µM (active)
O=c1[nH]c(=O)n([C@@H]2O[C@H](CO)[C@@H](O)[C@H]2O)cc1F [5-FLUOROURIDINE],EC50,HEK293 [4],> 59.6 µM (inactive)
same,EC50,HEK293 [5],> 59.6 µM (inactive)
Sc1nnc(-c2ccccc2)n1/N=C/c1cccs1,EC50,[8],> 160 µM (inactive)
same,EC50,[9],2.56 µM (active)
same,IC50,[10],> 100 µM (inactive)
same,IC50,[11],1.81 µM (active)
Cc1ccc(Cl)c2sc(NC(=O)C3=COCCO3)nc12,IC50,Caspase-3,63.4 µM (active)
same,IC50,[12],13.1 µM (active)
same,IC50,[13],> 100 µM (inactive)
Cc1ccc(C)c(N2CCN(C(=O)C3CCCCN3S(=O)(=O)c3ccc(F)cc3)CC2)c1 (stereo unspecified),IC50,[14],7.84 µM (not active)
CC1Cc2ccccc2N1C(=O)COC(=O)Cn1nnc(-c2ccccc2)n1 (stereo unspecified),IC50,[14],8.56 µM (not active)
Cc1ccc2[nH]c(C)c(/C=N/Nc3nc4ccccc4s3)c2c1,CC50,[15],14.6 µM (active)
same,EC50,[16],2.24 µM (active)
same,EC50,[17],18 µM (active)
same,EC50,[18],> 60 µM (inconclusive)
same,EC50,[19],19.7 µM (active)
same,AC50,[1],5.3 µM (active)
CC(C)COc1cccc(C(=O)NNC(=O)C2COc3ccccc3O2)c1 (stereo unspecified),EC50,cells [2],> 350 µM (not active)
same,EC50,cells [3],> 350 µM (not active)
CCCc1ccc(Oc2c(C)n[nH]c2-c2ccc(O)c(C)c2O)cc1,EC50,[20],4.88 µM (active)
same,EC50,[21],4.42 µM (active)
CC(=O)NNC(=O)CN1C(=O)/C(=C/c2ccccc2)SC1=S,IC50,[22],> 66 µM (inactive)
same,IC50,[23],> 66 µM (inactive)
